According to patent US20240360113A1, “AMINOARYL-INTEGRIN AGONISTS COMPOUNDS” (Texas Heart Institute, priority 2021, published 2024):

How the values were obtained:
α4β1/VCAM-1 = target: T1, α4β1/VCAM-1 (Homo sapiens, UniProt P05556+P13612); assay: Static cell adhesion assay, Jurkat cells on VCAM-1 (VLA-4 agonist activity); type: cell-based; details: EC50 relative to THI0349 (average 11 uM) run on the same plate; Jurkat cells, 50% FBS
T1 construct: The Jurkat (VCAM-1 assays) and HSB (ICAM-1 assays) cell lines were obtained from American Type Culture Collection; endogenous in cells; host or cells: Jurkat (ATCC)
T1 sequence (P13612 34-1032): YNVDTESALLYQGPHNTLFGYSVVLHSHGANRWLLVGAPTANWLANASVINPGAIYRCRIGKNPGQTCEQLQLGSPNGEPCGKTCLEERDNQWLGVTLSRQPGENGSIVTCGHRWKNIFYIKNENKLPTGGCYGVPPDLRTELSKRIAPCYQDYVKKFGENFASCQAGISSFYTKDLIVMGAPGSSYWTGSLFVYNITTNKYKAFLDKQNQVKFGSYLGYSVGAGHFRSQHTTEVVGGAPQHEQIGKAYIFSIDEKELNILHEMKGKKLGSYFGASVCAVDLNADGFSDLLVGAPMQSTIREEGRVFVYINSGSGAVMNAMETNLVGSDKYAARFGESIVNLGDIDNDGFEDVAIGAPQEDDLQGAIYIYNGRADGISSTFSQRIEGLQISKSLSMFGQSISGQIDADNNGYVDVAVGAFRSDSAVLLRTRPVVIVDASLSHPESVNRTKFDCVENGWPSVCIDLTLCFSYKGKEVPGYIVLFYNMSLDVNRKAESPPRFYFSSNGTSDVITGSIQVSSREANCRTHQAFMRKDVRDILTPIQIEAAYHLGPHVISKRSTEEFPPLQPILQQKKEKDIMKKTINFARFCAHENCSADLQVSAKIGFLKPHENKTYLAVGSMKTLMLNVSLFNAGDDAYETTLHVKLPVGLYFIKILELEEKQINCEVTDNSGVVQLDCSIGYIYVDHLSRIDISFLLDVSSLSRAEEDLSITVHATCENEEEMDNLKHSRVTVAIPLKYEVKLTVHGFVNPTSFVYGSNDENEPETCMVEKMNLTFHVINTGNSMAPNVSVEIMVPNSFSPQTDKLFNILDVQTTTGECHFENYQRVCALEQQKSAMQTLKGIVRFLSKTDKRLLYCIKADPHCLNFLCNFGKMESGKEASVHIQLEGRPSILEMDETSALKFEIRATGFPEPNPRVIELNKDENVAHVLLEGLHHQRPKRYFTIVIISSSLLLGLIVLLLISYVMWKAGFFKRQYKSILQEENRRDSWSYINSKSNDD
T1 sequence (P05556 21-798): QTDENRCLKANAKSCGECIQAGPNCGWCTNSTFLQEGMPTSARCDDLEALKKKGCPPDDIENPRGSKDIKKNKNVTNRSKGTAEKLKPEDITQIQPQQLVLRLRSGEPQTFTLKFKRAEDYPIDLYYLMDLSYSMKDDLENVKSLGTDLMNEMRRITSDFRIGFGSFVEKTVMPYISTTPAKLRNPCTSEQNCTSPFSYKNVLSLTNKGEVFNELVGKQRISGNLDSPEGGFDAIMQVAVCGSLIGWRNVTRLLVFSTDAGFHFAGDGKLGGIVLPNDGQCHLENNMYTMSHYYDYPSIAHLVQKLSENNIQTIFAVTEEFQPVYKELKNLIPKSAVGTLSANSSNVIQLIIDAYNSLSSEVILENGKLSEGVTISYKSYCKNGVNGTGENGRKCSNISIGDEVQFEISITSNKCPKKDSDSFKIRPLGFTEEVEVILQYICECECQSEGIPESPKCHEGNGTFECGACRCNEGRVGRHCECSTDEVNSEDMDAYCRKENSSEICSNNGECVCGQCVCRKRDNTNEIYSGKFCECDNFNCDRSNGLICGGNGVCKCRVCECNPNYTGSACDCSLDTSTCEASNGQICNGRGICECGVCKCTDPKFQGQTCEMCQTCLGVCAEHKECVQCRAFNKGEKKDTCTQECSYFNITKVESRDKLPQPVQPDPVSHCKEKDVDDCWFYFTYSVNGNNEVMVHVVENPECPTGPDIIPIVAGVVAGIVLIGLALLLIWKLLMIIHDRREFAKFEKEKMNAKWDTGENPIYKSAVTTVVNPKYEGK
Procedure: (§1) For in vitro cell adhesion assays, compounds were dissolved in DMSO to make a series of stock solutions such that a 1:100 dilution in assay buffer would yield the desired final working concentrations in 1% DMSO (vehicle). Human VCAM-1 and ICAM-1 were purchased from R&D Systems (Minneapolis, MN). The Jurkat (VCAM-1 assays) and HSB (ICAM-1 assays) cell lines were obtained from American Type Culture Collection (Manassas, VA) and were maintained in recommended culture media.
(§2) Assays were performed as previously described in Vanderslice et al., (2010), Biochem Biophys Res Commun 400, 619-624; and Vanderslice et al., (2013) J Biol Chem 288, 19414-19428. VCAM-1 or ICAM-1 ligand in 50 μL of 50 mM Tris-HCl (pH 7.4), 150 mM NaCl, (TBS) was added to wells of a 96-well plate and allowed to coat overnight at 4° C. To maximize the window to evaluate agonist activity, a sub-optimal coating concentration of ligand was used, typically 0.5 and 5 μg/mL in 50 μL TBS for VCAM-1 and ICAM-1 respectively. This ligand concentration corresponded approximately to that which would yield <5% adhesion as determined by dose-response curves. Briefly, 2×10^6 cells were labeled for 30 minutes with calcein-AM (Molecular Probes), washed, resuspended in binding buffer, and added to triplicate wells of ligand-coated plates (2×10^5 cells/well) that had been blocked with 2% BSA. After a 30-minute incubation at 37° C., the plates were washed 3 times with binding buffer, the adherent cells were lysed, and fluorescence was measured on a Tecan Safire^2 plate reader. The binding buffer was PBS with 1 mM MgCl2, 50% FBS for α4β1/VCAM-1 assays and PBS with 2 mM MgCl2, 5 mM EGTA, 50% FBS for αLβ2/ICAM-1 assays. EC50 is defined as the concentration of compound required to achieve 50% of the maximal response.

αLβ2/ICAM-1 = target: T2, αLβ2/ICAM-1 (Homo sapiens, UniProt P05107+P20701); assay: Static cell adhesion assay, HSB cells on ICAM-1 (LFA-1; LAD); type: cell-based; details: RFU of compound / RFU of THI0349, both at the same concentration
T2 construct: The Jurkat (VCAM-1 assays) and HSB (ICAM-1 assays) cell lines were obtained from American Type Culture Collection; endogenous in cells; host or cells: HSB (ATCC)
T2 sequence (P20701 26-1170): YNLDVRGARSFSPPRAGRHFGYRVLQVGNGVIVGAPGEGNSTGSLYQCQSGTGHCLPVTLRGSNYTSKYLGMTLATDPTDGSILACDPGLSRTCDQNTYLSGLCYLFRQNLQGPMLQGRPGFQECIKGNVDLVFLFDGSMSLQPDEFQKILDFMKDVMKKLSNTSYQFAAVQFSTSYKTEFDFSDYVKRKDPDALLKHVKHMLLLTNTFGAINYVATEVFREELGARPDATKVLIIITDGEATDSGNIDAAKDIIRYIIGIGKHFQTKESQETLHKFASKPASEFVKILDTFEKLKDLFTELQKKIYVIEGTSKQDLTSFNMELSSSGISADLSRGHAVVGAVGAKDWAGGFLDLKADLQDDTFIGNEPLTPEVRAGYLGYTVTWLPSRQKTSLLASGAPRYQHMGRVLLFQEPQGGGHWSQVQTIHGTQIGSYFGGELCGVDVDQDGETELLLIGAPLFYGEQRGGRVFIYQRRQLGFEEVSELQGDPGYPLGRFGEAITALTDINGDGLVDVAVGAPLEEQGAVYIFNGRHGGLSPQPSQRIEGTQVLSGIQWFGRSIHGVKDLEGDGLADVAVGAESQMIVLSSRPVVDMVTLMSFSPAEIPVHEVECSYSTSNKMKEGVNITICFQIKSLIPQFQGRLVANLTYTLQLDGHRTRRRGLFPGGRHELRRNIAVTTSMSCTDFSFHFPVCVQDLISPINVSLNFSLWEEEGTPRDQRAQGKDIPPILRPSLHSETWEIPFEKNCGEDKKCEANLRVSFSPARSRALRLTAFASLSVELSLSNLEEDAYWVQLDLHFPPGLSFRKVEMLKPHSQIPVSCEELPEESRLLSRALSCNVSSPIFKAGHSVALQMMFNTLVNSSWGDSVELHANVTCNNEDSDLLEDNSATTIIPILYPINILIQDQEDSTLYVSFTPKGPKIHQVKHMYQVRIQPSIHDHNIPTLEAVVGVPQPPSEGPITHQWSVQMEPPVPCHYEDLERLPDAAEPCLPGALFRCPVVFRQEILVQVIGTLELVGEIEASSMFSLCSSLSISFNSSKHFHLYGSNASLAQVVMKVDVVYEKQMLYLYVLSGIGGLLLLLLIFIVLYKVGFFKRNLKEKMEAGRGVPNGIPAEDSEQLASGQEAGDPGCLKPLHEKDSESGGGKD
T2 sequence (P05107 23-769): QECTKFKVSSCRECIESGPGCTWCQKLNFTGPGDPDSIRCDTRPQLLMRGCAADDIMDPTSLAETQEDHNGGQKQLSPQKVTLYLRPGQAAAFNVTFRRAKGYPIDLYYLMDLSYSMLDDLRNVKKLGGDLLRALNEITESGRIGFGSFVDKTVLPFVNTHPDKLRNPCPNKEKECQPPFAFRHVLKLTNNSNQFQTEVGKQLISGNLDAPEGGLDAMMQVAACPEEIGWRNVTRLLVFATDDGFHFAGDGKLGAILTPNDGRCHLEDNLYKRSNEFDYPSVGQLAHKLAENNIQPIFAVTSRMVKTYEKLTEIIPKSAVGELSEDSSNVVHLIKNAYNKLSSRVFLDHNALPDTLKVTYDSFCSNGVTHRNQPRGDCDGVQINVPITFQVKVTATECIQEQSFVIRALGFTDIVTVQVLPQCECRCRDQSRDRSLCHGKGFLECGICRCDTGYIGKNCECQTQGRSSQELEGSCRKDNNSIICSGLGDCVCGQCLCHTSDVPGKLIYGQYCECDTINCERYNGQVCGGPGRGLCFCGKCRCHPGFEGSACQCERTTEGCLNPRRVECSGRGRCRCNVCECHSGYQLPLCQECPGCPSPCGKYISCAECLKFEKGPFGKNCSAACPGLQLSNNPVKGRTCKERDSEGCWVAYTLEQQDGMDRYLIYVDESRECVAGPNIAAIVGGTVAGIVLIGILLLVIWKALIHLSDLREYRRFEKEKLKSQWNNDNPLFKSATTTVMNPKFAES
Procedure: as §1, §2
In relation to LAD (Leukocyte Adhesion Deficiency), LFA-1 ratios are determined by dividing the relative fluorescence units (RFU) of each compound at a concentration of 3 μM over that of the reference standard of THI0349, also at 3 μM, (RFU Compound/RFU of THI0349). Log Ps were calculated by either Chemdraw® version 12 (CambridgeSoft) or ACD/Chemsketch® (ACD/Labs).

| SMILES | Group against VCAM (α4β1/VCAM-1) | LAD Raw Fluorescence Units against LFA-1; Dose 3 µM; Ratio of raw counts Compound/THI0349 (αLβ2/ICAM-1) |
| --- | --- | --- |
| COc1cccc(CN(Cc2cccc(OC)c2)c2nc(COCCN3CCOCC3)cs2)c1 [Compound 64, N,N-bis(3-methoxybenzyl)-4-((2-morpholinoethoxy)methyl)thiazol-2-amine] | I (Group I maintains at least the same potency or better up to more than twice that of the EC50 of THI0349 ran on the same plate) | 0.31 |
| COc1cccc(CN(Cc2cccc(OC)c2)c2nc(COCCOc3cccc(N(C)C)c3)cs2)c1 [Compound 48, 4-((2-(3-(dimethylamino)phenoxy)ethoxy)methyl)-N,N-bis(3-methoxybenzyl)thiazol-2-amine] | I (Group I maintains at least the same potency or better up to more than twice that of the EC50 of THI0349 ran on the same plate) | 0.43 |
| COc1ccc(CN(Cc2ccc(OC)cc2)c2nc(COCCOCCOCc3csc(N(Cc4ccc(OC)cc4)Cc4ccc(OC)cc4)n3)cs2)cc1 [Compound 35, 4,4′-(2,2′-oxybis(ethane-2,1-diyl)bis(oxy))bis(methylene)bis(N,N-bis(4-methoxybenzyl)thiazol-2-amine)] | II (Group II is more than twice that of THI0349 but less than five times THI0349's EC50) | 0.98 |
| COc1ccc(CCCOCc2csc(N(Cc3cccc(OC)c3)Cc3cccc(OC)c3)n2)cc1 [Compound 39, N,N-bis(3-methoxybenzyl)-4-((3-(4-methoxyphenyl)propoxy)methyl)thiazol-2-amine] | III (Group III more than five times the EC50 of THI0349) | 0.23 |
| COc1cccc(COCc2cccc(N(Cc3cccc(OC)c3)Cc3cccc(OC)c3)c2)c1 [Compound 90, N,N-bis(3-methoxybenzyl)-3-(((3-methoxybenzyl)oxy)methyl)aniline] | III (Group III more than five times the EC50 of THI0349) | 0.09 |
| COc1cccc(CN(Cc2cccc(OC)c2)c2nc(COCCOCCOc3cccc(N(C)C)c3)cs2)c1 [Compound 41, 4-((2-(2-(3-(dimethylamino)phenoxy)ethoxy)ethoxy)methyl)-N,N-bis(3-methoxybenzyl)thiazol-2-amine] | I (Group I maintains at least the same potency or better up to more than twice that of the EC50 of THI0349 ran on the same plate) | 1.3 |
| CCOC(=O)c1csc(N(Cc2cccc(OC)c2)Cc2ccc3[nH]ncc3c2)n1 [Compound 116, ethyl 2-(((1H-indazol-5-yl)methyl)(3-methoxybenzyl)amino)thiazole-4-carboxylate] | III (Group III more than five times the EC50 of THI0349) | 0.09 |
| OCc1coc(N(Cc2cccs2)Cc2cccs2)n1 [Compound 25, (2-(bis(thiophen-2-ylmethyl)amino)oxazol-4-yl)methanol] | II (Group II is more than twice that of THI0349 but less than five times THI0349's EC50) | 0.74 |
| CCOC(=O)c1csc(N(Cc2cccc(OC)c2)Cc2ccc3ncccc3c2)n1 [Compound 114, ethyl 2-((3-methoxybenzyl)(quinolin-6-ylmethyl)amino)thiazole-4-carboxylate] | II (Group II is more than twice that of THI0349 but less than five times THI0349's EC50) | 0.39 |
| COc1cccc(CN(Cc2cccc(OC)c2)c2nc(COCCOc3ccc(N(C)C)cc3)cs2)c1 [Compound 51, 4-((2-(4-(dimethylamino)phenoxy)ethoxy)methyl)-N,N-bis(3-methoxybenzyl)thiazol-2-amine] | III (Group III more than five times the EC50 of THI0349) | 1.3 |
| COc1cccc(CN(Cc2cccc(OC)c2)c2nc(CN3CCOCC3)co2)c1 [Compound 81, N,N-bis(3-methoxybenzyl)-4-(morpholinomethyl)oxazol-2-amine] | II (Group II is more than twice that of THI0349 but less than five times THI0349's EC50) | 0.36 |
| CCOC(=O)c1csc(N(Cc2cccc(OC)c2)Cc2cccc(OC)c2)n1 [Compound 102, ethyl 2-(bis(3-methoxybenzyl)amino)thiazole-4-carboxylate] | II (Group II is more than twice that of THI0349 but less than five times THI0349's EC50) | 0.5 |
| CCc1nnc(N(Cc2cccc(OC)c2)Cc2cccc(OC)c2)s1 [Compound 94, 5-ethyl-N,N-bis(3-methoxybenzyl)-1,3,4-thiadiazol-2-amine] | III (Group III more than five times the EC50 of THI0349) | 0.29 |
| COc1cccc(CN(Cc2cccc(OC)c2)c2nc(C)cs2)c1 [Compound 29, N,N-bis(3-methoxybenzyl)-4-methylthiazol-2-amine] | III (Group III more than five times the EC50 of THI0349) | 0.88 |
| COc1cccc(CN(C)c2nc(CN3CCOCC3)cs2)c1 [Compound 111, N-(3-methoxybenzyl)-N-methyl-4-(morpholinomethyl)thiazol-2-amine] | III (Group III more than five times the EC50 of THI0349) | 0.06 |
| COc1cccc(CN(Cc2cccc(OC)c2)c2nc(CN3CCOCC3)cs2)c1 [Compound 67, N,N-bis(3-methoxybenzyl)-4-(morpholinomethyl)thiazol-2-amine] | I (Group I maintains at least the same potency or better up to more than twice that of the EC50 of THI0349 ran on the same plate) | 1.2 |
| COc1cccc(CN(Cc2ccc(-n3cccn3)cc2)c2nc(C)cs2)c1 [Compound 98, N-(4-(1H-pyrazol-1-yl)benzyl)-N-(3-methoxybenzyl)-4-methylthiazol-2-amine] | III (Group III more than five times the EC50 of THI0349) | 0.03 |
| COc1ccc(CCCNC(=O)c2coc(N(Cc3cccc(OC)c3)Cc3cccc(OC)c3)n2)cc1 [Compound 20, 2-(bis(3-methoxybenzyl)amino)-N-(3-(4-methoxyphenyl)propyl)oxazole-4-carboxamide] | II (Group II is more than twice that of THI0349 but less than five times THI0349's EC50) | 0.19 |
| COc1cccc(CN(Cc2cccc(OC)c2)c2nc(COCCOCc3ccccc3)cs2)c1 [Compound 58, 4-((2-(benzyloxy)ethoxy)methyl)-N,N-bis(3-methoxybenzyl)thiazol-2-amine] | I (Group I maintains at least the same potency or better up to more than twice that of the EC50 of THI0349 ran on the same plate) | 0.48 |
| COc1cccc(COCc2ccc(N(Cc3cccc(OC)c3)Cc3cccc(OC)c3)cc2)c1 [Compound 89, N,N-bis(3-methoxybenzyl)-4-((3-methoxybenzyloxy)methyl)aniline] | III (Group III more than five times the EC50 of THI0349) | 0.34 |
